Measured values: patent US20220389373A1, “METHODS AND SYSTEMS FOR GENERATING THREE-DIMENSIONAL BIOLOGICAL STRUCTURES” (Fluicell AB, priority 2019, published 2022)

Tested on: HaCaT cells
Assay: Retinoic acid treatment of bioprinted psoriasis-like skin model, CK10 immunofluorescence
Format: cell-based, human
Settings: printed stripes of differentiated (cytokine-treated) and non-differentiated HaCaT cells; RA 1 μM in growth media for 20 hrs; versus solvent control

For `CC1=C(/C=C/C(C)=C/C=C/C(C)=C/C(=O)O)C(C)(C)CCC1` [retinoic acid, all-trans retinoic acid], the “decrease in CK10 expression for the treated samples” value was “approximately 20%”.
